Results: US20080200461A1, “MODULATORS OF ACETYL-COENZYME A CARBOXYLASE AND METHODS OF USE THEREOF” (Cropsolution, Inc., priority 2007, published 2008)
Like-named read-outs stand apart in the source and are kept apart here.

Tests used:
Botrytis cinerea = assay: Fungicidal activity, microtiter plate agar growth assay; assay type: cell-based; conditions: read-out: In vivo IC50 B. cinerea
Phytophthora infestans = assay: microbe, parasite or virus in culture; assay type: cell-based; conditions: read-out: In vivo IC50 P. infestens
Stagonospora nodorum = assay: Fungicidal activity, microtiter plate agar growth assay; assay type: cell-based; conditions: Parastagonospora nodorum, read-out: In vivo IC50 S. nodorum
Septoria tritici = assay: as above; assay type: cell-based; conditions: Zymoseptoria tritici, read-out: In vivo IC50 S. tritici
Ustilago maydis ACC = Ustilago maydis ACC (Mycosarcoma maydis, UniProt A0A0D1DYD5); assay: biochemical; assay type: biochemical
Ustilago maydis K53R ACC = Ustilago maydis K53R ACC (Mycosarcoma maydis, UniProt A0A0D1DYD5, K53R); assay: biochemical; assay type: biochemical; conditions: K53R mutation that confers resistance to soraphen
Chain of Ustilago maydis K53R ACC (A0A0D1DYD5 entry or part of it K53R): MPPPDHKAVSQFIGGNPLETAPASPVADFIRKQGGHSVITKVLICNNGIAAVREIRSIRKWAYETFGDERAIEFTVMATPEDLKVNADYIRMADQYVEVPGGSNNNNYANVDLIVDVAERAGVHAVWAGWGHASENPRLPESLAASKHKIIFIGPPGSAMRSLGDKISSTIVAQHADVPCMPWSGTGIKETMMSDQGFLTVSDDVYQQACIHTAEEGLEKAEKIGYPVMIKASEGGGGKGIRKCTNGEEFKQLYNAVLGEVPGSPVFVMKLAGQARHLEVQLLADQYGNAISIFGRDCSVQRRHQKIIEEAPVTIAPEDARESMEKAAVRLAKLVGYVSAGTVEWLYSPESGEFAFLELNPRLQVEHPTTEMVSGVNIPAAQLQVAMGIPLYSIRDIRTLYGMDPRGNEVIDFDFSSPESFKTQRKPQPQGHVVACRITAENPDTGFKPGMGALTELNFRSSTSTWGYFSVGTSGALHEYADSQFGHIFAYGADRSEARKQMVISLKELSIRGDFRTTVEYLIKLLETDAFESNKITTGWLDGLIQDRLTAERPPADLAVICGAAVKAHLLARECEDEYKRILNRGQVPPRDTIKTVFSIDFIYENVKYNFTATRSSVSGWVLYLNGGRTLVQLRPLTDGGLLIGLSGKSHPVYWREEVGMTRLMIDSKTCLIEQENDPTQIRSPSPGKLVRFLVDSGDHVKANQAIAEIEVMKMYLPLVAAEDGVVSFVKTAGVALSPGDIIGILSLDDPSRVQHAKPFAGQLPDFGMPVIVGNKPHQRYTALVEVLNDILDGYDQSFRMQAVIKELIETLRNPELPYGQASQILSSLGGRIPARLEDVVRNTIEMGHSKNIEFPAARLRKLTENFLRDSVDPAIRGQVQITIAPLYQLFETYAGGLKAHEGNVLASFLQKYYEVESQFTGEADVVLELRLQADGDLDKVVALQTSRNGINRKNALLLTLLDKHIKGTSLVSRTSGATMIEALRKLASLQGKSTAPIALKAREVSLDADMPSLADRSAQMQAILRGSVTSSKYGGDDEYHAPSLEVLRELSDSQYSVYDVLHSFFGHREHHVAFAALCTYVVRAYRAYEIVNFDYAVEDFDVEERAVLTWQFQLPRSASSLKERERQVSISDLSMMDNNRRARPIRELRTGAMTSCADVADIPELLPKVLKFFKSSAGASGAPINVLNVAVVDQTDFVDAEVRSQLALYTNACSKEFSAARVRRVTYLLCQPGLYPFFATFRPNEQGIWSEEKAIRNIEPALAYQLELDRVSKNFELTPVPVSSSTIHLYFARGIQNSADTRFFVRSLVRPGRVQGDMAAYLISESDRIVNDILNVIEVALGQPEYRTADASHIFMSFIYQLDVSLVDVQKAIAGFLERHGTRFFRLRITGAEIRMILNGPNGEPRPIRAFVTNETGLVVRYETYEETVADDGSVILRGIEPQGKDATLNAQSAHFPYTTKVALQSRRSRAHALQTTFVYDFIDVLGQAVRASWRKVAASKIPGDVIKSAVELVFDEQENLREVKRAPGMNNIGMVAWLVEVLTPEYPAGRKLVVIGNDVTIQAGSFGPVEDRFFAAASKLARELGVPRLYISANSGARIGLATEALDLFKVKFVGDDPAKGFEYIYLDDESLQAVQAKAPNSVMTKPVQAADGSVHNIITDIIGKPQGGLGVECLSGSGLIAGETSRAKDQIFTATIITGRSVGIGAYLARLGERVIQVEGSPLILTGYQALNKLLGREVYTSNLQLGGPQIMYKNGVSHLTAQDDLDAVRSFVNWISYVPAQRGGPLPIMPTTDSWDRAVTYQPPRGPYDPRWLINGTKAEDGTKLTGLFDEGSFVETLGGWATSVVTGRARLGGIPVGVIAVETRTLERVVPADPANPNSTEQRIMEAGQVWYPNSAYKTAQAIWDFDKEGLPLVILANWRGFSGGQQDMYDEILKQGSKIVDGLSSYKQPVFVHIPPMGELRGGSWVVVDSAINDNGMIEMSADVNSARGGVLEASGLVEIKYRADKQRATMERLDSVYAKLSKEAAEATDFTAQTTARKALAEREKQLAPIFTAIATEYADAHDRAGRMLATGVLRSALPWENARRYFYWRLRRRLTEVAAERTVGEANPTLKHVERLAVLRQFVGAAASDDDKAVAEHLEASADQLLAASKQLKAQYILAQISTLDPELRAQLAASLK

yeast wt BC domain = yeast wt BC domain (Saccharomyces cerevisiae, UniProt Q00955); assay: Tryptophan fluorescence binding assay; conditions: for EC50: protein concentration = 200 nM
Chain of yeast wt BC domain (Q00955 58-567): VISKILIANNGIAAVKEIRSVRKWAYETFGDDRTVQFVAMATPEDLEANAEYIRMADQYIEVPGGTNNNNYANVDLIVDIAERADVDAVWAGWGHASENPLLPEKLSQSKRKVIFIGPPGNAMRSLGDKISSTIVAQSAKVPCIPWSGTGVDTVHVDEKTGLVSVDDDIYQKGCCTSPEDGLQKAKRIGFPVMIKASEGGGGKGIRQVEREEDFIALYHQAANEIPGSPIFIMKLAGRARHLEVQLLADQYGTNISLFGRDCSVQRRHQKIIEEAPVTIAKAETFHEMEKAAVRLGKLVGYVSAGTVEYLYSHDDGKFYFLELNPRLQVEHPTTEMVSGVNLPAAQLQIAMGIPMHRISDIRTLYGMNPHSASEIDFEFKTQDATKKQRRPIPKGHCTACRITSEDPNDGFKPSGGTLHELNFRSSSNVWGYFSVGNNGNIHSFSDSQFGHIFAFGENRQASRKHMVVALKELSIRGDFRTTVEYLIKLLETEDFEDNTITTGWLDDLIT
Method: The soraphen binding pocket contains a tryptophan residue. Thus, tryptophan fluorescence may be used to directly monitor binding of a ligand to this site. […] We conducted a similar assay in a 96-well format. Briefly, 200 nM protein in 100 mM Tris pH 8 containing 100 mM NaCl and 0.01% Tween 20 (v/v) was incubated in the presence of various amounts of test compounds dissolved in DMSO (1% v/v final concentration). Tryptophan fluorescence at […] was measured in a Pherastar plate reader (BMG Labtech) using 280 nm excitation.

rat liver ACC [1] = molecular target: T1, rat liver ACC (Rattus norvegicus, UniProt P11497); assay: Rat liver ACC activity, [14C]bicarbonate incorporation; assay type: biochemical
Description: (§1) To test the effect of compounds against mammalian ACC both human and rat enzyme preparations were employed. ACC was purified from rat liver according to published protocols (Rubink and Winder, J Appl Physiol 98, 1221-1227 (2005); Trumble et al., Eur J Biochem 231, 192-198 (1995)). Rat liver contains both ACC1 and ACC2 in a ˜85:15 ratio, respectively (Harwood et al., J Biol Chem 278, 37099-37111 (2003)).

hACC1 = molecular target: T2, hACC1 (Homo sapiens, UniProt Q13085); assay: Recombinant human ACC1 activity, [14C]bicarbonate incorporation; assay type: biochemical; conditions: Table II; read-out: Enzyme Activity IC50 Human ACC1
T2 construct: we cloned full-length cDNAs for both the human isoforms (hACC1 and hACC2); His tag (from pET30a) (C); made in house; host or cells: sf9 insect cells (baculovirus)

hACC2 = molecular target: T3, hACC2 (Homo sapiens, UniProt O00763); assay: Recombinant human ACC2 activity, [14C]bicarbonate incorporation; assay type: biochemical; conditions: Table II; read-out: Enzyme Activity IC50 Human ACC2
T3 construct: delete amino acids 1-148 and add Met-Gly in front of Lys149 in the final product; His tag (from pET30a) (C); made in house; host or cells: sf9 insect cells (baculovirus)
T3 sequence (O00763 with tags, fused parts or gaps): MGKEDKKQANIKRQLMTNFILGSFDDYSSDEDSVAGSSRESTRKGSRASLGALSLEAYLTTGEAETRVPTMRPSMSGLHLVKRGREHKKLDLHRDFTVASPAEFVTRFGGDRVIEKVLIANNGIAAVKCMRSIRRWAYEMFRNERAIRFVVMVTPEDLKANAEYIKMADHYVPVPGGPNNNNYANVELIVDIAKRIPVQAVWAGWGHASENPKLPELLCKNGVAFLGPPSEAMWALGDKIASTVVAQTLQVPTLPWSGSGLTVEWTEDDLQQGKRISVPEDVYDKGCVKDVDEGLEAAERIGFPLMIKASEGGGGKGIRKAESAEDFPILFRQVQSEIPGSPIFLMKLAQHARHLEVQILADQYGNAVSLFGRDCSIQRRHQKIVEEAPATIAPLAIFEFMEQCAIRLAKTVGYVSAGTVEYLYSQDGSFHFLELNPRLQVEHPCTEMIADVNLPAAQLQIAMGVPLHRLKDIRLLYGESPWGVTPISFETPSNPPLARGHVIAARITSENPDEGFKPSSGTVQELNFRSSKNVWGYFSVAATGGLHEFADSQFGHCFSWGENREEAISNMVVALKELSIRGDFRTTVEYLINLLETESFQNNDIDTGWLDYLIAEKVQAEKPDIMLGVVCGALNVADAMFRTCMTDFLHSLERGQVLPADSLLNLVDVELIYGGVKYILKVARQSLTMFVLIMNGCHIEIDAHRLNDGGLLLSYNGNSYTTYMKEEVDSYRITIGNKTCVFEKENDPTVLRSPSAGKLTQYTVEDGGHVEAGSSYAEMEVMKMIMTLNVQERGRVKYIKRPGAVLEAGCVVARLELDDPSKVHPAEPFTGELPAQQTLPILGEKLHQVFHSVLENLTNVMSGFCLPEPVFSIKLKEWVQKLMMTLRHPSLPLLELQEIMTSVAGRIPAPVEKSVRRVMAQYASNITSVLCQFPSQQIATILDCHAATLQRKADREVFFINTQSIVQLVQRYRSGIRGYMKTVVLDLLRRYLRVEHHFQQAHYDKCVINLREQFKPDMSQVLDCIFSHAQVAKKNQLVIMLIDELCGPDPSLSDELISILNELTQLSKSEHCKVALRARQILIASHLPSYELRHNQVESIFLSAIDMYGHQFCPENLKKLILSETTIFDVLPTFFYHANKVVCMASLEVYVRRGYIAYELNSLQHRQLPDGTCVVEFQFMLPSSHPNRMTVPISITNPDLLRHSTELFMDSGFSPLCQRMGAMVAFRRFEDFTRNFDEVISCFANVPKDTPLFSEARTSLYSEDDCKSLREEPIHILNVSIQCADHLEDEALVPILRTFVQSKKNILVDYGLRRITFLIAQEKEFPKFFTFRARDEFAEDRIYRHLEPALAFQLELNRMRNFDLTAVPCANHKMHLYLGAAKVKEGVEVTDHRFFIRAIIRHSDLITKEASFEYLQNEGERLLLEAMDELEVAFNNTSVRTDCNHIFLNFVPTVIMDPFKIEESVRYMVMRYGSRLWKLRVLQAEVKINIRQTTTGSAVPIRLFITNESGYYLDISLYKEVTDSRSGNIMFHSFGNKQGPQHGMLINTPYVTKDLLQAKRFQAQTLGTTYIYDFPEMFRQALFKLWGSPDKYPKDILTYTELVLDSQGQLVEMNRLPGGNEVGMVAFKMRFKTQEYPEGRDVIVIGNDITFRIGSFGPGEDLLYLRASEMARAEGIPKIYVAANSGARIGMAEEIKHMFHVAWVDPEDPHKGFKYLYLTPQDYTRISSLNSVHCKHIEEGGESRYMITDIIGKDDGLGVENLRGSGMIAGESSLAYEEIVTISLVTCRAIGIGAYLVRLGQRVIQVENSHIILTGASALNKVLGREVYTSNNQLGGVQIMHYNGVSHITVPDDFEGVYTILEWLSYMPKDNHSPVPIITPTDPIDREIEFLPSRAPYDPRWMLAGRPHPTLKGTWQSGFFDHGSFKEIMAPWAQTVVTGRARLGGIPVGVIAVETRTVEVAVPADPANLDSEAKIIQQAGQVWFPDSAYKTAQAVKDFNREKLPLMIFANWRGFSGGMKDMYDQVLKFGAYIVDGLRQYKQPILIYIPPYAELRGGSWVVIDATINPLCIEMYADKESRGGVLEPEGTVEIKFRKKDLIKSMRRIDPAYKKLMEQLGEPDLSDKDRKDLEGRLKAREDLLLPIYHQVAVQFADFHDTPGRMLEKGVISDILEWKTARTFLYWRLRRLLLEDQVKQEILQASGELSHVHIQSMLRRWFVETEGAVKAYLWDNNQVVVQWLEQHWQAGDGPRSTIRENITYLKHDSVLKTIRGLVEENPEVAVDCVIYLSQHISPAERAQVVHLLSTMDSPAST

rat liver ACC [2] = molecular target: T1, rat liver ACC; assay: FP saturation binding assay
Description: as §1

[3] = molecular target: BC domain of eukaryotic ACCs; conditions: literature; cited from earlier work
bacterial BC subunits = conditions: literature; cited from earlier work
yeast BC domain = yeast BC domain (Saccharomyces cerevisiae, UniProt Q00955); conditions: cited from earlier work
[4] = fungal growth on agar, 20° C., 3-5 days
[5] = Table I, read-out: In vitro IC50 U. maydis ACC activity
[6] = Table II, enzyme concentration 50 nM, read-out: Enzyme Activity IC50 U. maydis ACC
[7] = Table II, enzyme concentration 25 nM, ND = none detected, read-out: Enzyme Activity IC50 Rat liver ACC

C[N+]1(Cc2ccc(Cl)c(Cl)c2)CCN(CCCn2c(SCc3ccc(Cl)c(Cl)c3)nc3ccc(Br)cc3c2=O)CC1 [Compound 7]
IC50 (Botrytis cinerea; [4]): 4.3 µM
IC50 (Phytophthora infestans): 200 µM
IC50 (Stagonospora nodorum; [4]): 8 µM
IC50 (Septoria tritici; [4]): 4.8 µM
IC50 (Ustilago maydis ACC; [5]): 17 µM

COc1cc2c(=O)n(CCCC[N+](C)(C)Cc3ccc(Br)cc3)c(=S)n(Cc3ccc(Br)cc3)c2c(OC)c1OC [Compound 15]
IC50 (Botrytis cinerea; [4]): 2 µM
IC50 (Phytophthora infestans): 18 µM
IC50 (Stagonospora nodorum; [4]): 8 µM
IC50 (Septoria tritici; [4]): 4 µM
IC50 (Ustilago maydis ACC; [5]): 16 µM

Cc1cc(C)cc(CN(CCCC[N+](C)(C)Cc2cc(C)cc(C)c2)Cc2cc(C)cc(C)c2)c1 [Compound 19]
IC50 (Botrytis cinerea; [4]): 7 µM
IC50 (Phytophthora infestans): 25 µM
IC50 (Stagonospora nodorum; [4]): 64 µM
IC50 (Septoria tritici; [4]): 22 µM
IC50 (Ustilago maydis ACC; [5]): 21 µM

COc1cc2c(=O)n(CCCC[N+](C)(CCC[N+](C)(C)Cc3cc(C)cc(C)c3)Cc3cc(C)cc(C)c3)c(SCc3cc(C)cc(C)c3)nc2c(OC)c1OC (centres unmarked) [Compound 22]
IC50 (Botrytis cinerea; [4]): 6.7 µM
IC50 (Phytophthora infestans): 35 µM
IC50 (Stagonospora nodorum; [4]): 4.6 µM
IC50 (Septoria tritici; [4]): 4.4 µM
IC50 (Ustilago maydis ACC; [5]): 12 µM

Cc1cc(C)cc(CN(CC[N+](C)(C)Cc2cc(C)cc(C)c2)Cc2cc(C)cc(C)c2)c1 [Compound 25]
IC50 (Botrytis cinerea; [4]): 1.4 µM
IC50 (Phytophthora infestans): 18.2 µM
IC50 (Stagonospora nodorum; [4]): 5.8 µM
IC50 (Septoria tritici; [4]): 10 µM
IC50 (Ustilago maydis ACC; [5]): 42 µM

Cc1cc(C)cc(CN(CCC[N+](C)(C)Cc2cc(C)cc(C)c2)Cc2cc(C)cc(C)c2)c1 [Compound 26]
IC50 (Botrytis cinerea; [4]): 1 µM
IC50 (Phytophthora infestans): 23.5 µM
IC50 (Stagonospora nodorum; [4]): 5 µM
IC50 (Septoria tritici; [4]): 6 µM
IC50 (Ustilago maydis ACC; [5]): 39 µM

CC[N+](CC)(CCCCN(Cc1cc(C)cc(C)c1)Cc1cc(C)cc(C)c1)Cc1cc(C)cc(C)c1.[Br-] [Compound 28, Diethyl(3,5-dimethylbenzyl)[bis-(3,5-dimethylbenzyl)aminobutyl]ammonium formate]
IC50 (Botrytis cinerea): 1.8 µM
IC50 (Phytophthora infestans): 21.5 µM
IC50 (Stagonospora nodorum): 7.2 µM
IC50 (Septoria tritici): 11 µM
IC50 (Ustilago maydis ACC; Enzyme activity IC50 U. maydis wt ACC): 11 µM
IC50 (Ustilago maydis ACC; In vitro IC50 U. maydis ACC activity): 17 µM
Effect of K53R mutation on inhibition of ACC by compound (Ustilago maydis K53R ACC): confers resistance to inhibition
Effect on tryptophan fluorescence of yeast BC domain (yeast wt BC domain): quenched
EC50 (yeast wt BC domain): 11 µM

Cc1cc(C)cc(CN(CCCC[N+](C)(C)Cc2cc(C)cc(C)c2)S(=O)(=O)c2ccc(Br)cc2)c1 [Compound 61]
IC50 (Ustilago maydis ACC; [6]): 9 µM

Cc1cc(C)cc(CN(CCCC[N+](C)(C)Cc2cc(C)cc(C)c2)C(=S)Nc2c(F)cccc2F)c1 [Compound 74]
IC50 (Ustilago maydis ACC; [6]): 9 µM

CC[N+](CC)(CCCCN(Cc1cc(C)cc(C)c1)C(=O)c1cc(C)cc(C)c1)Cc1cc(C)cc(C)c1 [Compound 76]
IC50 (Ustilago maydis ACC; [6]): 30 µM

CC[N+](CC)(CCCCN(Cc1cc(C)cc(C)c1)S(=O)(=O)c1ccc2ccccc2c1)Cc1cc(C)cc(C)c1 [Compound 85, Diethyl(3,5-dimethylbenzyl)[N-(3,5-dimethylbenzyl)-2-naphthalenesulfonamidobutyl]ammonium bromide]
IC50 (Ustilago maydis ACC; [6]): 15 µM
IC50 (rat liver ACC [1]; [7]): 43 µM

CC[N+](CC)(CCCCN(Cc1cc(C)cc(C)c1)C(=O)c1ccc2ccccc2c1)Cc1cc(C)cc(C)c1 [Compound 133, Diethyl(3,5-dimethylbenzyl)[N-(3,5-dimethylbenzyl)-2-naphthalenecarboxamidobutyl]ammonium bromide]
IC50 (Ustilago maydis ACC; [6]): 3 µM

CC[N+](CC)(CCCCN(Cc1ccc2c(c1)OCCO2)S(=O)(=O)c1ccc2ccccc2c1)Cc1cc(C)cc(C)c1.[Br-] [Compound 184]
Effect of K53R mutation on inhibition of ACC by compound (Ustilago maydis K53R ACC): confers resistance to inhibition

CC[N+](CC)(CCCCN(Cc1ccc2ccccc2c1)S(=O)(=O)c1cccc(Cl)c1Cl)Cc1cc(C)cc(C)c1 [Compound 237]
IC50 (Ustilago maydis ACC; [6]): 1.4 µM
IC50 (hACC1): 12 µM
IC50 (hACC2): 50 µM

CC[N+](CC)(CCCCN(Cc1ccc2ccccc2c1)C(=O)c1cc2cccc(OC)c2cc1OC)Cc1cc(C)cc(C)c1 [Compound 260]
IC50 (Ustilago maydis ACC; [6]): 1.4 µM
IC50 (hACC1): 2.8 µM
IC50 (hACC2): 11 µM

CC[N+](CC)(CCCCN(Cc1ccc2ccccc2c1)C(=O)c1sc2cccc(Cl)c2c1Cl)Cc1cc(C)cc(C)c1.[Br-] [Compound 322]
IC50 (Ustilago maydis ACC; [6]): 0.04 µM
IC50 (hACC1): 0.25 µM
IC50 (hACC2): 1 µM
Effect of K53R mutation on inhibition of ACC by compound (Ustilago maydis K53R ACC): confers resistance to inhibition

CC[N+](CC)(CCCCN(Cc1ccc2ccccc2c1)C(=O)c1sc2c(Cl)c(OC)ccc2c1Cl)Cc1cc(C)cc(C)c1 [Compound 326]
IC50 (Ustilago maydis ACC; [6]): 0.18 µM
IC50 (hACC1): 0.15 µM
IC50 (hACC2): 1.5 µM

CO[C@H]1CCCC[C@@H](c2ccccc2)OC(=O)[C@@H](C)[C@@]2(O)O[C@H]([C@@H](C)[C@H](O)[C@H]2OC)[C@@H](C)/C=C/[C@H]1OC [soraphen A, Soraphen A, reference compound]
IC50 (Ustilago maydis ACC; [6]): 0.017 µM
IC50 (Ustilago maydis ACC; Table III, enzyme concentration = 50 nM, read-out: Enzyme activity IC50 U. maydis wt ACC): 0.017 µM
IC50 (Ustilago maydis ACC; read-out: IC50 inhibition of fungal ACC): 0.017 µM
IC50 (rat liver ACC [1]; tight binding conditions, nominal enzyme concentration 25 nM, read-out: IC50 rat liver ACC activity): 0.014 µM
IC50 (hACC1): 0.011 µM
IC50 (hACC2): 0.0027 µM
EC50 (yeast wt BC domain): 0.09 µM
Kd (rat liver ACC [2]): 0.0032 µM
Kd [3]: ~0.001 µM
Effect on bacterial BC subunits (bacterial BC subunits): no effect
Kd (yeast BC domain): 0.001 µM

Diethyl(3,5-dimethylbenzyl)[N-(2-naphthylmethyl)-2-naphthalenesulfonamidobutyl]ammonium bromide [Compound 200]
IC50 (Ustilago maydis ACC; [6]): 0.56 µM
IC50 (rat liver ACC [1]; [7]): 11 µM
IC50 (hACC1): 7.6 µM
IC50 (hACC2): 22 µM
